Consider 1 compound from patent EP1721614A1, “Epirubicine hydrochloride for treating hepatitis C virus” (Institut National de la Santé et de la Recherche Médicale …, priority 2005, dated 2006).

Structures can show the parent of a compound that is named as a salt.

For data set [1], the system named is HCV subgenomic replicon stably transfected into Huh7 cell lines (clone BM4.5). The data set is described as follows: anti-HCV activity in HCV subgenomic replicon system (Northern blot of HCV RNA, normalised to actin). In kind it is cell-based, hepatitis C virus (HCV). As to the method: The potential antiviral (anti HCV) activity of epirubicin hydrochloride was tested in in vitro cell culture model using the HCV subgenomic replicon stably transfected into Huh7 cell lines (clone BM4.5) (Ju-Tao Gao et al., J Virol. 2001).
Huh7 cells containing the HCV replicon were grown in cell culture medium in presence of varying concentration of epirubicin. The media and drug were changed everyday for 5 days. After 5 days of treatment the cells were lysed and total RNA extracted. The isolated RNA was then assayed for presence of HCV replication by Northern Blot analysis, using a HCV probe targeting the NS5B region of HCV.
The cell lines were treated everyday with epirubicin from concentration of 20 nM to 2 nM for 5 days and at the end of treatment RNA from the treated cells were isolated. The total RNA was then probed with a HCV specific probe using Northern blot analysis to detect the HCV RNA. The resulting blot was then exposed to phosphorimager densitometry and the viral replication quantified.
A general note: A replicon is a self-replicating genome or part of one, used to study replication in cells.

Data set [2] in a line: in vitro. Particulars: human, huh7 cells.
For data set [3] the following is noted: cited from earlier work.

As usually defined, the CC50 is the concentration giving 50% cytotoxicity. A lower CC50 goes with greater toxicity to the cells. On to `COc1cccc2c1C(=O)c1c(O)c3c(c(O)c1C2=O)C[C@@](O)(C(=O)CO)C[C@@H]3O[C@H]1C[C@H](N)[C@@H](O)[C@H](C)O1` [epirubicin hydrochloride, 7-O-(3'-amino-2',3',6'-trideoxy-α,β-L-arabinohexpyranosyl)-adriamycinone hydro-chloride], for which the selectivity index in data set [1] (CC50 in Huh7 cells versus IC50 in HCV replicon system) is given as 25. The IC50 in data set [1] (Hepatitis C virus, Huh-7, 120 h, Huh7 replicon cells, 5 days of treatment, Figure 2, read-out: 50% inhibitory concentration (IC50), anti-HCV activity measured in HCV replicon system) was 3 to 5 nM. Also, the CC50 in data set [2] is above 100 nM. In addition, the maximum cumulative dose in data set [3] (antitumor therapy in man) is listed as 900 - 1000 mg/m^2. For the same compound, in data set [3] (man), the “"safe" dose (total cumulative dose, Kaplan-Meier plot of cumulative probability of developing congestive heart failure)” value was 100 - 150 mg/m^2.
